Experimental data reported in patent US8114865B2, “Indazole derivatives as kinase inhibitors for the treatment of cancer” (Nerviano Medical Sciences S.R.L., priority 2006, dated 2012).

Tests used:
IGF-1R [1] = target: T1, IGF-1R (Homo sapiens, UniProt P08069); experiment: Biochemical assay for inhibitors of IGF-1R kinase activity (trans-phosphorylation, Dowex); design: amino acid residues 960-1367 of precursor protein; made in house; host or cells: H5 insect cells (baculovirus; virus generated in Sf21); details: read-out: IGF1R IC50
Experimental: Human cDNA was used as template for amplification by polymerase chain reaction (PCR) of the predicted cytoplasmic portion of IGF-1R (amino acid residues 960-1367 of precursor protein; see NCBI Entrez Protein Accession #P08069) which includes the entire kinase domain. PCR was conducted using the forward primer sequence 5′-[…]-3′ [SEQ ID NO: 1] and the reverse primer sequence 5′-[…]-3′[SEQ ID NO: 2].
In order to facilitate subsequent cloning steps, both primers comprise a BamHI restriction endonuclease site sequence. This PCR product was cloned in frame using BamHI sticky ends into a transfer vector for the baculovirus expression system, pVL1392 (Pharmingen), previously modified by insertion into the pVL1392 multiple cloning site of sequences encoding Glutathione S-transferase (GST) fusion protein, PreScission protease cleavage site and partial MCS cassette derived from the pGex-6P plasmid (Amersham BioSciences). Insertion of the IGF-1R PCR product described above into the pGex-6P derived BamHI site of the modified pVL1392 vector results in an open reading frame corresponding to the pGEX-6P GST protein and PreScission peptide fused with the human IGF-1R cytoplasmic domain. In order to obtain fusion protein, Sf21 insect cells (Invitrogen) are cotransfected with 2 microg of purified plasmid and 1 microg of virus DNA (BaculoGold™ Transfection Kit, Pharmingen), as described in the Baculovirus Instruction manual (Pharmingen). A first amplification of the virus is performed using 600 microL of cotransfected virus on 6×10^6 Sf21 in a monolayer culture, in 12 mL of medium (TNM-FH Grace's medium—Pharmingen). After 3 days the medium is collected, centrifuged and transferred to a sterile tube. A second amplification is prepared with the same method using 2 mL on 3×10^7 cells, diluted in 40 mL of medium. For the third amplification of virus, 1 mL of supernatant from the second round are used per 3×10^7 cells diluted in 40 mL of medium. […]
The inhibitory activity of putative kinase inhibitors and the potency of selected compounds were determined using a trans-phosphorylation assay. […]
Target sequence in this assay (P08069 960-1367): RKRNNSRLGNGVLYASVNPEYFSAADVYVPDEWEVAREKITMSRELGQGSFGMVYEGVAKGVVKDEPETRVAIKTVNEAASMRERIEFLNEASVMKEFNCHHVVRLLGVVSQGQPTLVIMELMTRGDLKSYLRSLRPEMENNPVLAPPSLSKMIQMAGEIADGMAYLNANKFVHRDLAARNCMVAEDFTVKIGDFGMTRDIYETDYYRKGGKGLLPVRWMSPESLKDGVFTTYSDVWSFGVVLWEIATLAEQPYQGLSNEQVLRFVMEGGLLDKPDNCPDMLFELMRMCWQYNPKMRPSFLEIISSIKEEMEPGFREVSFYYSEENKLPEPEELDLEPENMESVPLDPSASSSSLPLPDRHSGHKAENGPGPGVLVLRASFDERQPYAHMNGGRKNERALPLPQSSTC

IGF-1R [2] = target: T1, IGF-1R; experiment: Western blot analysis of receptor phosphorylation following stimulation with IGF-1 in MCF-7 human breast cancer cells; type: cell-based; design: endogenous in cells; host or cells: MCF-7 (ATCC# HTB-22); details: starved MCF7 cells, 10 nM IGF1, increasing concentrations of compound, FIG. 1
Experimental: [formula] where νb is the baseline velocity, v is the observed reaction velocity, vo is the velocity in the absence of inhibitors, and [I] is the inhibitor concentration. Cell-Based Assays for Inhibitors of IGF-1R Kinase Activity Western Blot Analysis of Receptor Phosphorylation Following Stimulation with IGF-1 in MCF-7 Human Breast Cancer Cells
MCF-7 cells (ATCC# HTB-22) were seeded in 12-well tissue culture plates at 2×10^5 cells/well in E-MEM medium (MEM+Earle's BSS+2 mM glutamine+0.1 mM non-essential amino acids)+10% FCS, and incubated overnight at 37° C., 5% CO2, 100% relative humidity. Cells were then starved by replacing E-MEM+10% FCS with E-MEM+0.1% BSA, and incubating overnight. After this incubation, wells were treated with desired concentrations of compound for 1 hour at 37° C., and were then stimulated with 10 nM recombinant human IGF-1 (Invitrogen, Carlsbad, Calif., USA) for 10 minutes at 37° C. Cells were then washed with PBS and lysed in 100 microL/well cell lysis buffer (M-PER Mammalian Protein Extraction Reagent [Product #78501, Pierce, Rockford, Ill., USA]+10 mM EDTA+Protease inhibitor cocktail [Sigma-Aldrich product #P8340]+phosphatase inhibitor cocktail [Sigma-Aldrich products #P2850+#P5726]). Cell lysates were cleared by centrifugation at 10,000×g for 5 minutes, and 10 microg/lane of cleared lysate protein were run on NuPAGE gels (NuPAGE 4-12% 10-lane Bis-Tris gels, Invitrogen) with MOPS running buffer, then transferred onto Hybond-ECL nitrocellulose filters (Amersham Biosciences, Little Chalfont, Buckinghamshire, UK) using Mini PROTEAN II chambers (Bio-Rad Laboratories, Hercules, Calif., USA). […]
Target sequence in this assay (P08069 31-1367): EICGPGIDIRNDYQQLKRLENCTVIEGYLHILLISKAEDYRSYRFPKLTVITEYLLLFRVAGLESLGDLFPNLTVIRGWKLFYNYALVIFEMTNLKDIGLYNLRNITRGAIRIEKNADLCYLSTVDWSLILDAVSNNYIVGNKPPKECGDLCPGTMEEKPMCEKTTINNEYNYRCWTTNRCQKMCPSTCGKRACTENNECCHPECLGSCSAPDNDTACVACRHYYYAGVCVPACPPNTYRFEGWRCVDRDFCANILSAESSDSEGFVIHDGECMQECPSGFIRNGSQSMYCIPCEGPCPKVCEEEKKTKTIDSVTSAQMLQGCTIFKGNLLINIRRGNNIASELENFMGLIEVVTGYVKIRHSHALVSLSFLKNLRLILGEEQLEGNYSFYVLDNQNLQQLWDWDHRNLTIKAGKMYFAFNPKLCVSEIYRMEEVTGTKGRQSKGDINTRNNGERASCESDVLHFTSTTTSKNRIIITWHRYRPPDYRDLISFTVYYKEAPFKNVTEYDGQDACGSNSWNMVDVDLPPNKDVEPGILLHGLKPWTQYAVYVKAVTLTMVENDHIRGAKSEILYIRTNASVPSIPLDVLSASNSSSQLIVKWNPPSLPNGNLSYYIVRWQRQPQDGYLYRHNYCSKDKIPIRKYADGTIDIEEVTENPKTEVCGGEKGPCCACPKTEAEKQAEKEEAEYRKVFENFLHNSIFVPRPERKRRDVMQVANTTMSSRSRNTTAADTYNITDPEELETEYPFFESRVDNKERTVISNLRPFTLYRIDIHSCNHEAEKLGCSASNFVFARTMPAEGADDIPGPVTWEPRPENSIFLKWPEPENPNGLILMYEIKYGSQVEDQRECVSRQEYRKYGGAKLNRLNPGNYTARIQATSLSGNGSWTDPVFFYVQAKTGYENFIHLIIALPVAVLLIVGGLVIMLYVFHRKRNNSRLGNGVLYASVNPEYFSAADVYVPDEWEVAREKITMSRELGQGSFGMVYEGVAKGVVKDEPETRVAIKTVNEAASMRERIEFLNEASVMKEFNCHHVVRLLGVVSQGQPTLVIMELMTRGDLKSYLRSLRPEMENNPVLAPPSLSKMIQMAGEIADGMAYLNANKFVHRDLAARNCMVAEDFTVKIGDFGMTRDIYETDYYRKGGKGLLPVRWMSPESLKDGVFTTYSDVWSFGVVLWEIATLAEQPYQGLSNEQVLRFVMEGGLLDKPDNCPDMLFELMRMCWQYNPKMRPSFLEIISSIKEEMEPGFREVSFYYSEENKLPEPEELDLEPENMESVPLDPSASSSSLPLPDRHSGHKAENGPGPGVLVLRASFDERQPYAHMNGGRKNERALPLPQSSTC

| IC50 (IGF-1R [1]) [nM] | Structure (SMILES) | inhibition of IGF1-induced IGF1R auto-phosphorylation (IGF-1R [2]) |
| --- | --- | --- |
| 850 | CN1CCN(c2ccc(C(=O)Nc3n[nH]c4ccc(S(=O)(=O)c5ccccc5)cc34)cc2)CC1 [Compound 1, N-(5-Benzenesulfonyl-1H-indazol-3-yl)-4-(4-methyl-piperazin-1-yl)-benzamide] | inhibition of IGF1-induced IGF1R auto-phosphorylation |
| 36 | CN1CCN(c2ccc(C(=O)Nc3n[nH]c4ccc(S(=O)(=O)c5ccccc5)cc34)c(NC(=O)c3ccc[nH]3)c2)CC1 [Compound 33, 1H-pyrrole-2-carboxylic acid [2-(5-benzenesulfonyl-1H-indazol-3-ylcarbamoyl)-5-(4-methyl-piperazin-1-yl)-phenyl]amide] | inhibition of IGF1-induced IGF1R auto-phosphorylation |
| 230 | CN1CCN(c2ccc(C(=O)Nc3n[nH]c4ccc(S(=O)(=O)c5ccccc5)cc34)c(NC(=O)[C@@H]3CCCO3)c2)CC1 [Compound 36, (S)-Tetrahydro-furan-2-carboxylic acid [2-(5-benzenesulfonyl-1H-indazol-3-ylcarbamoyl)-5-(4-methyl-piperazin-1-yl)-phenyl]-amide] | inhibition of IGF1-induced IGF1R auto-phosphorylation |
